{
  "source": "patent EP0562849A2",
  "about": "“Steroid derivatives” (priority 1992, dated 1993)",
  "key": {"[1]": {"system": "African green monkeys", "assay": "Monkey pilot study of plasma cholesterol levels on a hypercholesterolemic diet", "assay_type": "in vivo", "conditions": "for Plasma Cholesterol Levels, individual animals: animals 1-6; for Plasma Cholesterol Levels, Mean: mean of six animals", "method": "To study the effect in short term lowering of plasma cholesterol concentrations in African green monkeys.\nSix African green monkeys were given a hypercholesterolemic diet containing 16.4% lard and 0.33% cholesterol for two weeks to establish a baseline cholesterol level. Thereafter, two daily doses of [14a,5a]-4-(2-propenyl)cholestan-3a-ol, the compound of Example 5, were administered in their feed at 25 mg/kg/day total daily dosage. After ten days the drug dose was increased to 50 mg/kg/day for an additional 3 weeks, followed by a washout period when no drug was administered and the hypercholesterolemic diet was maintained. Blood samples were drawn on the days indicated and plasma was prepared foranalysis. Cholesterol was determined by standard enzymatic techniques(method of Allain et aI., using diagnostics high performance Cholesterol Reagent No. 236691, product of Boehringer Mannheim Co., Indianapolis, Indiana USA)."}, "[2]": {"system": "human LDL receptor promoter", "assay": "in vitro Luciferase Activity Test (LDL receptor promoter-luciferase reporter in recombinant CHO cells)", "assay_type": "cell-based", "conditions": "maximum activity (%) over control, 15% luciferase activity cutoff point (footnote 2)", "outline": "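Stably transfected CHO clone S27/B30 carries the 1546 bp human LDL receptor promoter driving firefly luciferase; an SV40 promoter-luciferase CHO line serves as nonspecific-transcription control. Assay medium is DMEM/Ham's F-12 (3:1) with 20 mM HEPES, 0.5% bovine albumin and 0.5 µg/ml 25-hydroxycholesterol.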"}, "[3]": {"system": "Syrian Golden hamsters", "assay": "In vivo serum cholesterol lowering in hamsters fed a cholesterol test diet", "conditions": "hamsters", "method": "Syrian Golden hamsters were fed a cholesterol test diet made of 10% coconut oil and 0.12% cholesterol (by weight) in Purina 5001 Rodent Chow to induce hypercholesteriolemia.\nAfter two weeks on the cholesterol test diet the hamsters were bled from the orbital sinium under light CO2 anesthesia. Serum was prepared and analyzed for cholesterol using a commercial test kit (Cholesterol High Performance, Single Vial™, product of Boehringer Mannheim Corp., Indianapolis, IN, USA). The hamsters were separated into groups of six animals, such that each group had approximately the same mean serum cholesterol levels. Selected compounds of the invention were incorporated into the Cholesterol Test Diet at 0.2% (w/w) and fed to the hamsters for one week. A control group of hamsters continued on the Cholesterol Test Diet during the same one-week period. The dose of test compounds of the invention was equivalent to 100 mg/kg/day based on the weight of the hamsters and their diet consumption. Upon completion of the test period, the animals were bled and serum cholesterol determined as above.\nMean serum cholesterol values from the test hamsters were compared to values from the control group and tested for significance at the Z.05 level using Dunnett's test."}},
  "note": "Values joined by “and” are separate entries in the source; they are usually repeats but may differ in a detail not shown here. Equal entries are not always repeated.",
  "data": [
    {"compound": "C=CC[C@@H]1[C@H](O)CC[C@@]2(C)[C@H]1CC[C@@H]1[C@@H]2CC[C@]2(C)[C@@H]([C@H](C)CCCC(C)C)CC[C@@H]12", "note": "[Example 5, [4a,5a]-4-(2-propenyl)cholestan-3a-ol]", "values": [
      {"measurement": "Plasma Cholesterol Levels, individual animals", "setting": "[1]; Day 4, dose 50 mg/kg/day in feed, 50 mg/kg/day", "result": "184 and 878 and 155 and 159 and 148 and 211"},
      {"measurement": "Plasma Cholesterol Levels, Mean", "setting": "[1]; Day 4, dose 50 mg/kg/day", "result": 205},
      {"measurement": "Plasma Cholesterol Levels, individual animals", "setting": "[1]; Day 5, dose 25 mg/kg/day in feed, 25 mg/kg/day", "result": "268 and 411 and 175 and 182 and 189 and 252"},
      {"measurement": "Plasma Cholesterol Levels, Mean", "setting": "[1]; Day 5, dose 25 mg/kg/day, Day 0 mean 252", "result": 244},
      {"measurement": "Plasma Cholesterol Levels, individual animals", "setting": "[1]; Day 7 Washout (no drug, diet maintained)", "result": "209 and 251 and 165 and 192 and 174 and 200"},
      {"measurement": "Plasma Cholesterol Levels, Mean", "setting": "[1]; Day 7 Washout", "result": 199},
      {"measurement": "Plasma Cholesterol Levels, individual animals", "setting": "[1]; Day 8, dose 25 mg/kg/day in feed, 25 mg/kg/day", "result": "208 and 386 and 172 and 184 and 174 and 249"},
      {"measurement": "Plasma Cholesterol Levels, Mean", "setting": "[1]; Day 8, dose 25 mg/kg/day", "result": 226},
      {"measurement": "Plasma Cholesterol Levels, Mean", "setting": "[1]; Day 12 (50 mg/kg/day per method)", "result": 190},
      {"measurement": "Plasma Cholesterol Levels, individual animals", "setting": "[1]; Day 12 (dose not given; 50 mg/kg/day per method), 50 mg/kg/day", "result": "172 and 276 and 159 and 169 and 157 and 206"},
      {"measurement": "Plasma Cholesterol Levels, individual animals", "setting": "[1]; Day 14 Washout (no drug, diet maintained)", "result": "226 and 311 and 176 and 159 and 173 and 213"},
      {"measurement": "Plasma Cholesterol Levels, Mean", "setting": "[1]; Day 14 Washout", "result": 210},
      {"measurement": "Plasma Cholesterol Levels, Mean", "setting": "[1]; Day 20 (50 mg/kg/day per method)", "result": 192},
      {"measurement": "Plasma Cholesterol Levels, individual animals", "setting": "[1]; Day 20 (dose not given; 50 mg/kg/day per method), 50 mg/kg/day", "result": "188 and 314 and 143 and 161 and 142 and 206"},
      {"measurement": "Plasma Cholesterol Levels, individual animals", "setting": "[1]; Day 21 Washout (no drug, diet maintained)", "result": "270 and 344 and 193 and 168 and 216 and 246"},
      {"measurement": "Plasma Cholesterol Levels, Mean", "setting": "[1]; Day 21 Washout", "result": 240},
      {"measurement": "lowering plasma cholesterol levels", "setting": "[1]; conclusion of the pilot study, 25 then 50 mg/kg/day in feed", "result": "effective in lowering plasma cholesterol levels"},
      {"measurement": "Emax", "setting": "[2]; Homo sapiens, CHO, read-out: MA%", "result": 121, "unit": "%"},
      {"measurement": "MA%", "setting": "[2]", "result": "120% and 135%"},
      {"measurement": "inhibition in vivo at 100 mg/kg/day", "setting": "[3]; Mesocricetus auratus, feed or water, 168 h, 0.2% (w/w) in diet for one week (100 mg/kg/day), negative values = serum cholesterol increased relative to control, read-out: Percent Lowering of Cholesterol from Control Value Mean", "result": 49.2, "unit": "%"},
      {"measurement": "Serum Cholesterol Mean", "setting": "[3]; 0.2% (w/w) in Cholesterol Test Diet for one week, equivalent to 100 mg/kg/day, groups of six, control mean 337, listed as (2)", "result": 171, "unit": "mg/dL"}
    ]}
  ]
}
